One assay addresses PtGSTU20C160Y (Populus trichocarpa, UniProt D2X9R3, C160Y). As to conditions: PtGSTU19 C160Y in Table S4, peroxidase activity, mean ± S.D., n = 3.
For a further assay, the target named is PtGSTU19Y160C (Populus trichocarpa, UniProt B9HKX9, Y160C). As to conditions: PtGSTU19 Y160C, peroxidase activity, mean ± S.D., n = 3.
The next assay has as its target PtGSTU20 (Populus trichocarpa, UniProt D2X9R3). Kind of assay: Peroxidase activity, NADPH coupled spectrophotometric assay. Format: biochemical.
In another assay the target is PtGSTU19Y160F (Populus trichocarpa, UniProt B9HKX9, Y160F). To be noted: PtGSTU19 Y160F, peroxidase activity, mean ± S.D., n = 3.
In the next assay the target is PtGSTU19 (Populus trichocarpa, UniProt B9HKX9). Kind of assay: Peroxidase activity, NADPH coupled spectrophotometric assay. Format: biochemical.
The next assay concerns the target PtGSTU19Y160A (Populus trichocarpa, UniProt B9HKX9, Y160A). To be noted: PtGSTU19 Y160A, peroxidase activity, mean ± S.D., n = 3.
[1] abbreviates: enzyme concentration increased up to 10 µM.
The mark [2] stands for this setting: peroxidase activity, 1 mM GSH, pH 8.0, mean ± S.D., n = 3.
Where [3] appears, read: read-out: apparent K m, peroxidase activity, 1 mM GSH, pH 8.0, mean ± S.D., n = 3.

Chain of PtGSTU20 (D2X9R3 entry or part of it): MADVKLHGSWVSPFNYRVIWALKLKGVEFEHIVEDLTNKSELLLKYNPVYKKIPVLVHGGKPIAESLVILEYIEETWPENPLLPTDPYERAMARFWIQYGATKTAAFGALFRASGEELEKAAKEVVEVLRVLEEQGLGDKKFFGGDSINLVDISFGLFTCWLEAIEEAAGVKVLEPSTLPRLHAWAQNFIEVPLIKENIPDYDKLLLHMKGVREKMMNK
Chain of PtGSTU19 (B9HKX9 entry or part of it): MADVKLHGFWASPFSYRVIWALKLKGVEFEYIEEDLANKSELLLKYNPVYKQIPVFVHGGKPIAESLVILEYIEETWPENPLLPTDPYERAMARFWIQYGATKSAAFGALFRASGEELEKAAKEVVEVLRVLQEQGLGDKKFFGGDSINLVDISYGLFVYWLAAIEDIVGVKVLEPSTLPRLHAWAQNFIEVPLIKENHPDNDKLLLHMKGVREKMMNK
Chain of PtGSTU19Y160A (B9HKX9 2-219 Y160A): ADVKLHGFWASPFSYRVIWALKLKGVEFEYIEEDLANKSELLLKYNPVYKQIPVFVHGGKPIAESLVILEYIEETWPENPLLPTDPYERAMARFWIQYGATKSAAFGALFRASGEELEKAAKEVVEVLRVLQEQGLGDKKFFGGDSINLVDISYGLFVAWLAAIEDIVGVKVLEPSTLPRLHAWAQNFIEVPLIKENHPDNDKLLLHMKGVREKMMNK
Chain of PtGSTU20C160Y (D2X9R3 2-219 C160Y): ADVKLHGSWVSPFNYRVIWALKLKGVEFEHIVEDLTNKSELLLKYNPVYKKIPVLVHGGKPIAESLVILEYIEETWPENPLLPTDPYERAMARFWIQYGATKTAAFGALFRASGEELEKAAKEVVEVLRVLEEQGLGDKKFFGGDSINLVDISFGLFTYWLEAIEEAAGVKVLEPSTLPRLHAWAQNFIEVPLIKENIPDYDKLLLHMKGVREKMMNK
Chain of PtGSTU19Y160F (B9HKX9 2-219 Y160F): as the sequence (B9HKX9 2-219 Y160A) above, with A159F counted along it
Chain of PtGSTU19Y160C (B9HKX9 2-219 Y160C): as the sequence (B9HKX9 2-219 Y160A) above, with A159C counted along it
Description for PtGSTU19Y160A: (§1) Peroxidase activity toward hydroperoxides was measured using an NADPH coupled spectrophotometric assay ([Pégeot et al., 2014]).
(§2) The measured velocities were corrected by subtracting the rate of the spontaneous nonenzymatic reaction, and three independent experiments were performed at each substrate concentration.
Description for PtGSTU19Y160C: as §1, §2
Description for PtGSTU19Y160F: as §1, §2
Description for PtGSTU20C160Y: as §1, §2

As for `CC(C)(OO)c1ccccc1` [CuOOH, cumene hydroperoxide], the k cat at PtGSTU20C160Y turned out to be 0.14 ± 0.01 s⁻¹; on PtGSTU19Y160C, 0.45 ± 0.03 s⁻¹; at PtGSTU20 (setting [2]) it was 0.24 ± 0.01 s⁻¹; on PtGSTU19Y160F, 0.49 ± 0.01 s⁻¹; at PtGSTU19 (setting [2]), 0.17 ± 0.01 s⁻¹; on PtGSTU19Y160A, 0.33 ± 0.02 s⁻¹. For the same molecule, the Km at PtGSTU20C160Y (read-out: apparent KM) worked out at 491 ± 97.5 µM; at PtGSTU19Y160C (read-out: apparent KM) it was 1260 ± 140 µM; at PtGSTU20 (setting [3]), 98.6 ± 15.4 µM; at PtGSTU19Y160F (read-out: apparent KM), 347 ± 34.6 µM; at PtGSTU19 (setting [3]) it was 197 ± 31.1 µM; on PtGSTU19Y160A (read-out: apparent KM), 701 ± 82.7 µM. The “Peroxidase activity (active on the peroxide)” value at PtGSTU20 (setting [1]) and at PtGSTU19 (setting [1]) was “weakly active” throughout. Further, the Catalytic efficiency on PtGSTU20 (peroxidase activity) came to 2400 M⁻¹ s⁻¹; at PtGSTU19 (peroxidase activity), 800 M⁻¹ s⁻¹. For the same molecule, the “k cat/K m” value is given as 2.4 ± 0.1 10^3 M^-1s^-1 on PtGSTU20 (setting [2]) and 0.85 ± 0.04 10^3 M^-1s^-1 at PtGSTU19 (setting [2]).

These data come from paper PMC9412104, “Biochemical and Structural Insights on the Poplar Tau Glutathione Transferase GSTU19 and 20 Paralogs Binding Flavonoids” (Frontiers in Molecular Biosciences, 2022).
